Experimental findings from US20110166196A1, “TREATMENT AND PROPHYLAXIS OF EPILEPSY AND FEBRILE SEIZURES” (priority 2008, published 2011) are described below.

Assay [1] has as its system excitatory synapses onto CA1 hippocampal interneurons. In words: HFS-induced long-term depression (LTD) of EPSCs, whole-cell recording in hippocampal slices. Type of assay: cell-based, rat. The text has this: (§1) The basic methods have been detailed previously (McMahon and Kauer, 1997). Sprague-Dawley rats (15-22 days old) were used in the majority of experiments. In addition, we used TRPV1^−/− mice (Caterina et al., 2000) and wild-type C57BL/6 mice aged between 15 and 21 days (Jackson Laboratory). The TRPV1^−/− mice we used have been backcrossed at least 10 times onto a C57BL/6 background and were obtained from homozygous breeding pairs. Control mice were therefore not littermates but were age-matched, wild-type C57BL/6 animals received from the same supplier in the same shipment. All animal protocols were approved by the Brown University Institutional Animal Care and Use Committee. For mouse experiments, only one brain slice per mouse was used for each experiment, so that reported ‘n’ numbers represent the number of animals. Animals were anaesthetized using halothane or isoflurane and quickly decapitated. The brain was rapidly removed and 300 μm thick coronal slices prepared and stored for at least one hour submerged on a net in artificial cerebrospinal fluid (ACSF) containing in mM: 119 NaCl, 26 NaHCO3, 2.5 KCl, 1.0 NaH2PO4, 2.5 CaCl2, 1.3 MgSO4 and 11 dextrose, saturated with 95% O2/5% CO2 (pH 7.4). Slices were then transferred to a submerged recording chamber and bathed in oxygenated ACSF (28-32° C.) containing elevated divalent cations to reduce epileptiform activity (4 mM CaCl2 and 4 mM MgCl2, replacing MgSO4). A surgical cut was made between the CA3 and CA1 regions. The storage of slices submerged on a net rather than in an interface chamber on filter paper may be important in maintaining slice health and improving the likelihood of observing LTD.
(§2) Slices were continuously perfused with ACSF warmed to 28-32° C. at a flow rate of 1-2 ml/min. Picrotoxin (100 μM) and D-AP5 (50 μM) were added to block GABAA receptor- and NMDAR-mediated synaptic transmission. Whole-cell patch clamp recordings were made from interneurons identified visually in the CA1 stratum radiatum of the hippocampus. […] Patch pipettes were filled with internal recording solution containing in mM: 117 cesium gluconate, 2.8 NaCl, 5 MgCl2, 20 HEPES, 2 ATP-Na^+, 0.3 GTP-Na^+ and 0.6 EGTA. In some experiments 2 μM capsazepine, 140 nM baicalein, or 250 μM GDPβS were also included in the intracellular patch pipette solution. In experiments with BAPTA-containing patch electrodes, EGTA was omitted from the intracellular solution and 25 or 40 mM BAPTA replaced a corresponding amount of cesium gluconate. EPSCs were stimulated at 0.1 Hz (100 μsec) using a bipolar stainless steel stimulating electrode placed in stratum radiatum at least 200 μm from the recorded cell. CA1 interneurons were voltage clamped at −65 mV (not corrected for the liquid junction potential, of ˜10 mV), and EPSCs were evoked by paired pulses with an interval of 50 msec (stimulus intensity typically 50-400 μA). In early experiments, we measured rectification ratios of EPSCs evoked at +40 mV/−60 mV in the presence of 50 μM D-AP5, measured at the time of peak inward synaptic current seen at −70 mV (Lei and McBain, 2004).
High-frequency stimulation was used to induce LTD (HFS; two 1 sec trains at 100 Hz, inter-train interval 20 sec, at 1.5 times test current intensity) with the neuron held in current-clamp mode, so that the HFS trains were delivered with the membrane potential free to vary. Receptor antagonists were added directly to the ACSF at known concentrations for at least 10 minutes prior to HFS. Control experiments were interleaved with those experiments using receptor antagonists or involving slices from TRPVl^−/− mice. The cell input resistance and series resistance were monitored throughout each experiment; cells were discarded if these values changed by more than 10% during the experiment.

Assay [2] shares this test system. Briefly: Drug-induced depression of EPSC amplitudes, whole-cell recording in hippocampal slices. To be noted: 12-(S)-HPETE 100 nM bath-applied; n=8. Type of assay: cell-based, rat.
Text: as §1, §2
The maximal initial slope of fEPSPs was calculated using a LabVIEW-based program (National Instruments). The peak amplitude of each EPSC was measured by comparing a 10 msec time period immediately prior to the stimulus with the peak of the EPSC using this program as well. Occasionally polysynaptic responses were evoked, and in these cases, only the initial monosynaptic event was measured. To positively identify LTD, EPSCs measured every 10 seconds were averaged in 1 minute intervals. EPSC amplitude values were normalized to control pre-HFS EPSC amplitude values (baseline period of at least 5 minutes prior to HFS) and subjected to analysis of variance (ANOVA) repeated measures analysis with a post-hoc Dunnett's test (GraphPad Prism, Version 4).

In assay [3] the test system is excitatory synapses on interneurons. Briefly: Drug-induced depression of EPSC amplitudes in slices from TRPV1-/- and C57BL/6 wild-type mice. Type of assay: cell-based, mouse. To be noted: 12-(S)-HPETE 100 nM; TRPV1−/− mice; P=0.33, n=6. From the text:
The basic methods have been detailed previously (McMahon and Kauer, 1997). Sprague-Dawley rats (15-22 days old) were used in the majority of experiments. In addition, we used TRPV1^−/− mice (Caterina et al., 2000) and wild-type C57BL/6 mice aged between 15 and 21 days (Jackson Laboratory). The TRPV1^−/− mice we used have been backcrossed at least 10 times onto a C57BL/6 background and were obtained from homozygous breeding pairs. Control mice were therefore not littermates but were age-matched, wild-type C57BL/6 animals received from the same supplier in the same shipment. All animal protocols were approved by the Brown University Institutional Animal Care and Use Committee. For mouse experiments, only one brain slice per mouse was used for each experiment, so that reported ‘n’ numbers represent the number of animals. Animals were anaesthetized using halothane or isoflurane and quickly decapitated. […]
Slices were continuously perfused with ACSF warmed to 28-32° C. at a flow rate of 1-2 ml/min. […] EPSCs were stimulated at 0.1 Hz (100 μsec) using a bipolar stainless steel stimulating electrode placed in stratum radiatum at least 200 μm from the recorded cell. […] In early experiments, we measured rectification ratios of EPSCs evoked at +40 mV/−60 mV in the presence of 50 μM D-AP5, measured at the time of peak inward synaptic current seen at −70 mV (Lei and McBain, 2004).
The maximal initial slope of fEPSPs was calculated using a LabVIEW-based program (National Instruments). The peak amplitude of each EPSC was measured by comparing a 10 msec time period immediately prior to the stimulus with the peak of the EPSC using this program as well. Occasionally polysynaptic responses were evoked, and in these cases, only the initial monosynaptic event was measured. To positively identify LTD, EPSCs measured every 10 seconds were averaged in 1 minute intervals. […]

For assay [4], the system named is excitatory synapses onto CA1 hippocampal interneurons. In words: Synaptic failure analysis using minimal stimulation. Type of assay: cell-based, rat. Conditions: 12-(S)-HPETE 100 nM; pre-application 35.2±1.9%; n=6. As to the method: as §2, with “CA1 interneurons were voltage clamped at −65 mV (not corrected for the liquid junction potential, of ˜10 mV), and EPSCs were evoked by paired pulses with an interval of 50 msec (stimulus intensity typically 50-400 μA).” left out

Assay [5] deals with synapses between CA3 and CA1 pyramidal cells. Briefly: Field EPSP recordings in hippocampal slices. Type of assay: cell-based, rat. Conditions: 100 nM 12-(S)-HPETE; P=0.83, n=5. How it is done: The maximal initial slope of fEPSPs was calculated using a LabVIEW-based program (National Instruments). The peak amplitude of each EPSC was measured by comparing a 10 msec time period immediately prior to the stimulus with the peak of the EPSC using this program as well. Occasionally polysynaptic responses were evoked, and in these cases, only the initial monosynaptic event was measured. To positively identify LTD, EPSCs measured every 10 seconds were averaged in 1 minute intervals. EPSC amplitude values were normalized to control pre-HFS EPSC amplitude values (baseline period of at least 5 minutes prior to HFS) and subjected to analysis of variance (ANOVA) repeated measures analysis with a post-hoc Dunnett's test (GraphPad Prism, Version 4). […] EPSC amplitude values 15 to 20 minutes post-HFS were compared between control LTD experiments and those carried out either in transgenic TRPV1^−/− mice, or in the presence of drug using a t-test (unpaired, two-tailed, with Welch's correction if the variances between the groups were unequal). To calculate the effects of capsaicin, 12-(S)-HPETE or WIN 55,212-2 application on basal excitatory glutamatergic transmission, normalized EPSC amplitudes or fEPSP slopes were averaged in the final 5 minutes of drug application and compared with EPSCs/EPSPs 5 minutes prior to drug application. In addition, to measure capsaicin's effects on holding current, the peak change in holding current was measured during bath application of 3 μM capsaicin. The n-values reported refer to the number of slices. All combined data are expressed as mean±the standard error of the mean (s.e.m.).

In another assay the target is T1, TRPV1 channels (Mus musculus, UniProt Q704Y3).
T1 construct: whole-cell recordings from acutely prepared brain slices from wild type C57BL/6 mice; from tissue; host or cells: acute coronal hippocampal slices from P14-P20 wild-type C57BL/6 mice: CA1 pyramidal neurons
T1 sequence (Q704Y3 whole entry): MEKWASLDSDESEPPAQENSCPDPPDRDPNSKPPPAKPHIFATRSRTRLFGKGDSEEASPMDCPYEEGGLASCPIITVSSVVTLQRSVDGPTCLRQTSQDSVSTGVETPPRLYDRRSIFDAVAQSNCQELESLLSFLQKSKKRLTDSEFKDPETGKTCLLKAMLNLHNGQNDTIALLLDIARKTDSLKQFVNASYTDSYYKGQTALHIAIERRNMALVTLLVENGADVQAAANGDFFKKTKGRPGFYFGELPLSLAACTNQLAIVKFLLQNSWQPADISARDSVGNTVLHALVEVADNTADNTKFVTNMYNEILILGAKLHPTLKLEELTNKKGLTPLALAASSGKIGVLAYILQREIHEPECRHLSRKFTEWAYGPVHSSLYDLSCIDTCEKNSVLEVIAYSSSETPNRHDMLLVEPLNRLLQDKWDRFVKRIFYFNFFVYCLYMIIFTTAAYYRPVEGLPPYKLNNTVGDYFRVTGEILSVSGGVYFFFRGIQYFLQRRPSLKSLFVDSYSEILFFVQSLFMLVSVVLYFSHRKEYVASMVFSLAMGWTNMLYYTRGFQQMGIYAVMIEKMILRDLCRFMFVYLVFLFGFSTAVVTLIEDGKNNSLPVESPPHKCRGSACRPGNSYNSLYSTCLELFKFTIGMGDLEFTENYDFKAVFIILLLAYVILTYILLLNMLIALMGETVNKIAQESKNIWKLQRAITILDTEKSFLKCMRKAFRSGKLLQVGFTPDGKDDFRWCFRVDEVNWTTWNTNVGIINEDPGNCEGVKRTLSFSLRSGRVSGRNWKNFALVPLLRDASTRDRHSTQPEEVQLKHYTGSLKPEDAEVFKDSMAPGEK
Briefly: TRPV1 agonist-evoked inward current and depolarization in CA1 pyramidal neurons. Type of assay: cell-based. Conditions: 12-(S)-HPETE 100 nM bath-applied.

Assay [6] deals with CA1 pyramidal neurons from trpv1−/− mice. In words: Residual heat-activated current in CA1 pyramidal neurons from trpv1-/- mice. Type of assay: cell-based, mouse. Conditions: 10 μM ruthenium red bath; trpv1−/− CA1 neurons (34.6±8.4 pA without); n=5.

As to `CCCCC/C=C\C[C@@H](/C=C/C=C\C/C=C\CCCC(=O)O)OO` [12-(S)-HPETE, 12-(S)-Hydroperoxyeicosa-5Z, 8Z, 10E, 14Z-tetraenoic acid], the “EPSC amplitudes 15-20 minutes post-HFS” value in assay [1] (HFS after 12-(S)-HPETE 100 nM (occlusion), n=6) is on record as 98.7±15.3 % of control values in 12-(S)-HPETE before HFS. Also, the “EPSC amplitudes after 10-15 minutes in 12-(S)-HPETE” value in assay [2] is on record as 40.6±11.7 % of pre-drug control values. Moreover, in assay [3], the “EPSC amplitudes after 10-15 minutes in 12-(S)-HPETE in TRPV1−/− mice” value is recorded as 109.0±6.8 % of pre-drug control values. In addition, the “average synaptic failures in 12-(S)-HPETE” value in assay [4] amounted to 89.7±3.0%. Further, the “fEPSP slopes after 10-15 minutes in 12-(S)-HPETE” value in assay [5] is recorded as 99.0±3.5 % of pre-drug control values. Moreover, the “12-(S)-HPETE-evoked current in CA1 neuron” value at TRPV1 channels is recorded as “induces an inward current”.

In the case of `COC(=O)[C@@H](N)CCCNC(=N)N[N+](=O)[O-]` [L-NAME], the “EPSC amplitudes 15-20 minutes post-HFS” value in assay [1] (200 μM L-NAME bath applied 10 minutes prior to HFS, n=5) is 46.3±10.4 % of control values before HFS.

For the compound `N.N.N.N.N.N.N.N.N.N.N.N.N.N.[Cl-].[Cl-].[Cl-].[Cl-].[Cl-].[Cl-].[O-2].[O-2].[Ru+3].[Ru+3].[Ru+4]` [ruthenium red], the “peak heat-evoked inward current in ruthenium red” value in assay [6] came out at 9.3±7.7 pA.

For the compound `N[C@H](CCCP(=O)(O)O)C(=O)O` [D-AP5, D(−)-2-amino-5-phosphonovaleric acid], the “EPSC amplitudes 15-20 minutes post-HFS” value in assay [1] (D-AP5 50 μM in bath, P<0.001, n=26, LTD not prevented) is reported as 62.0±5.3 % of control values before HFS.

As to `O=c1cc(-c2ccccc2)oc2cc(O)c(O)c(O)c12` [baicalein], the “cells with potentiation (greater than 125% of control 20 minutes following the HFS)” value in assay [1] (baicalein 500 nM bath-applied) is “four of ten”. The “EPSC amplitudes 15-20 minutes post-HFS” value in assay [1] (baicalein 500 nM bath-applied, n=10) is on record as 129.6±20.3 % of control values before HFS. For the same compound, the “cells recorded from with intracellular baicalein that had LTD” value in assay [1] (patch pipette solution containing 140 nM baicalein) is given as 4 of 12. Further, the “EPSC amplitudes 15-20 minutes post-HFS with intracellular baicalein” value in assay [1] (patch pipette solution containing 140 nM baicalein, n=12) is reported as 110.8±15.4 % of control values before HFS.

`O=C(O)CN(CC(=O)O)c1ccccc1OCCOc1ccccc1N(CC(=O)O)CC(=O)O` [BAPTA, 1,2-bis(o-aminophenoxy)ethane-N,N,N′,N′-tetraacetic acid]: the “cells recorded from with intracellular BAPTA that had LTD” value in assay [1] (patch pipette solution containing 25-40 mM BAPTA) is on record as 6 of 14. Moreover, the “EPSC amplitudes 15-20 minutes post-HFS with intracellular BAPTA” value in assay [1] (patch pipette solution containing 25-40 mM BAPTA, n=14) is reported as 90.5±8.5 % of control values before HFS.
